Molecules are shown by their SMILES. Structures can show the parent of a compound that is named as a salt. Where two headings read alike, the source gives them in different places.

The test deals with IRAK4 (Homo sapiens (Human), UniProt Q9NWZ3). Briefly: IRAK4 kinase activity, IMAP fluorescence polarization assay. The settings on record: 100 μM ATP. Type of test: biochemical. Summed up:
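GST-tagged IRAK4 at 0.5 nM phosphorylates 100 nM fluorescent peptide substrate with 100 μM ATP in pH 7.2 Tris buffer containing MgCl2, DTT and Tween 20, 30 min at 25 °C. Reaction stopped with IMAP binding reagent; phosphorylation read as increased fluorescence polarization.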

[1] abbreviates: 0.5 nM GST tagged IRAK4, read-out: IRAK4 IC50.
The mark [2] stands for this setting: unit inferred, read-out: IRAK4 IC50.

IRAK4, sequence (Q9NWZ3 whole entry): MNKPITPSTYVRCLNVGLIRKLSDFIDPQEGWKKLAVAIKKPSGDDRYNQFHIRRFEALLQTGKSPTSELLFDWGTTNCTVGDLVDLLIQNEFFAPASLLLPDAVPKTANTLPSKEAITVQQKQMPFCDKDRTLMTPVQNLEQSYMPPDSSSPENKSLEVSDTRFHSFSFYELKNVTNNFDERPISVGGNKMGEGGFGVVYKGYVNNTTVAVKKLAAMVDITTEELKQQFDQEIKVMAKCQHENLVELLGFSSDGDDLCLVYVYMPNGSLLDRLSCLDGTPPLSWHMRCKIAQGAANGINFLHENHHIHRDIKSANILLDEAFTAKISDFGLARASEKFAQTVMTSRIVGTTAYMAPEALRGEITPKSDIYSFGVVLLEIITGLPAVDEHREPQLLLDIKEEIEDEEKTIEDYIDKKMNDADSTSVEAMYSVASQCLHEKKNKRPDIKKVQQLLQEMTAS

A word on the IC50: it is the point on the concentration scale where inhibition reaches its midpoint. For `O=c1[nH]c(N2CCCC2c2ccncc2)nc(N[C@@H]2CCCNC2)c1-c1ccc2ccccc2n1` (stereo partly drawn) [Example 182, 6-((R)-piperidin-3-ylamino)-2-(2-(pyridin-4-yl)pyrrolidin-1-yl)-5-(quinolin-2-yl)pyrimidin-4(3H)-one], the IC50 (read-out: IRAK4 IC50) came out at 3180 nM.

As for `O=c1[nH]c(N2CCOCC2)nc(N[C@H]2CCNC2)c1-c1nc2ccccc2s1` [Example 86, (S)-5-(Benzo[d]thiazol-2-yl)-2-morpholino-6-(pyrrolidin-3-ylamino)pyrimidin-4(3H)-one.HCl], the IC50 under setting [1] was determined as 620 nM.

Consider `O=c1[nH]c(N2CCC(O)C2)nc(N[C@@H]2CCCNC2)c1-c1ccc2ccccc2n1` (stereo partly drawn) [Example 167, 2-(3-hydroxypyrrolidin-1-yl)-6-((R)-piperidin-3-ylamino)-5-(quinolin-2-yl)pyrimidin-4(3H)-one], for which, where the note is “read-out: IRAK4 IC50”, the IC50 came out at 20 nM. Regarding `O=c1[nH]c(N2CCOCC2)nc(NCCN2CCCC2)c1-c1nc2ccccc2s1` [Example 259, 5-(1,3-benzothiazol-2-yl)-2-(morpholin-4-yl)-6-[[2-(pyrrolidin-1-yl)ethyl]amino]-3,4-dihydropyrimidin-4-one], the IC50 (read-out: IC50) came out at 2200 nM. For `O=c1[nH]c(N2CCOCC2)nc(NC2CCNC2)c1-c1nc2ccccc2s1` (stereo not drawn) [Example 85, 5-(Benzo[d]thiazol-2-yl)-2-morpholino-6-(pyrrolidin-3-ylamino)pyrimidin-4(3H)-one.HCl], the IC50 under setting [1] was determined as 177 nM. On the same count and under the same terms, to `O=c1[nH]c(N2CCOCC2)nc(N[C@@H]2CCCNC2)c1-c1nc2cccc(C3CC3)c2s1` [Example 344, 5-(7-cyclopropyl-1,3-benzothiazol-2-yl)-2-(morpholin-4-yl)-6-[[(3R)-piperidin-3-yl]amino]-3,4-dihydropyrimidin-4-one trifluoroacetic acid] belongs 4500 nM. For `Cc1nsc(C2CCN(c3nc(N[C@@H]4CCCNC4)c(-c4ccc5ccccc5n4)c(=O)[nH]3)CC2)n1` [Example 191, (R)-2-(4-(3-methyl-1,2,4-thiadiazol-5-yl)piperidin-1-yl)-6-(piperidin-3-ylamino)-5-(quinolin-2-yl)pyrimidin-4(3H)-one], the half-maximal inhibitory concentration (IC50) (read-out: IRAK4 IC50) came out at 138 nM. Same read-out and setting: then `O=c1[nH]c(N2CC(O)(C(F)(F)F)C2)nc(N[C@@H]2CCCNC2)c1-c1ccc2ccccc2n1` [Example 170, (R)-2-(3-hydroxy-3-(trifluoromethyl)azetidin-1-yl)-6-(piperidin-3-ylamino)-5-(quinolin-2-yl)pyrimidin-4(3H)-one], with 18 nM. As to `CN1CCC2(CCN(c3nc(N[C@@H]4CCCNC4)c(-c4nc5ccccc5s4)c(=O)[nH]3)C2)C1` (stereo partly drawn) [Example 325, 5-(1,3-benzothiazol-2-yl)-2-[7-methyl-2,7-diazaspiro[4.4]nonan-2-yl]-6-[[(3R)-piperidin-3-yl]amino]-3,4-dihydropyrimidin-4-one], where the note is “read-out: IC50”, the IC50 came to 24 nM. `CC1CN(c2nc(N[C@@H]3CCCNC3)c(-c3nc4ccccc4s3)c(=O)[nH]2)CC(C)O1` (stereo partly drawn) [Example 294, 5-(benzo[d]thiazol-2-yl)-2-(2,6-dimethylmorpholino)-6-((R)-piperidin-3-ylamino)pyrimidiri-4{3H)-one]: for the setting “read-out: IC50”, the 50% inhibitory concentration (IC50) was 300 nM. On the same count and under the same terms, then `O=c1[nH]c(N2CCOCC2)nc(N[C@@H]2CCCNC2)c1-c1cccc(-n2cccc2)n1` [Example 215, (R)-5-(6-(1H-pyrrol-1-yl)pyridin-2-yl)-2-morpholino-6-(piperidin-3-ylamino)pyrimidin-4(3H)-one], with 185 nM. Regarding `O=c1[nH]c(N2CCC(c3cccnc3)CC2)nc(N[C@@H]2C[C@H](CO)[C@@H](O)[C@H]2O)c1-c1nc2ccccc2s1` [Example 70, 5-(benzo[d]thiazol-2-yl)-6-((1R,2S,3R,4R)-2,3-dihydroxy-4-(hydroxymethyl)cyclopentylamino)-2-(4-(pyridin-3-yl)piperidin-1-yl)pyrimidin-4(3H)-one], the 50% inhibitory concentration (IC50) under setting [2] amounted to 13.3 nM. For `CC(C)S(=O)(=O)N1CCC(c2nc(N[C@@H]3CCCNC3)c(-c3nc4ccccc4s3)c(=O)[nH]2)CC1` [Example 237, 5-(1,3-benzothiazol-2-yl)-6-[[(3R)-piperidin-3-yl]amino]-2-[1-(propane-2-sulfonyl)piperidin-4-yl]-3,4-dihydropyrimidin-4-one], the IC50 (read-out: IC50) amounted to 210 nM. Same read-out and setting: to `O=c1[nH]c(N2CCOCC2)nc(N[C@@H]2CCCNC2)c1-c1csc(-n2cccn2)n1` [Example 217, (R)-5-(2-(1H-pyrazol-1-yl)thiazol-4-yl)-2-morpholino-6-(piperidin-3-ylamino)pyrimidin-4(3H)-one] belongs 82 nM; to `CN1CCCC(Nc2nc(N3CCOCC3)[nH]c(=O)c2-c2nc3ccccc3s2)C1` (stereo not drawn) [Example 252, 5-(1,3-benzothiazol-2-yl)-6-[(1-methylpiperidin-3-yl)amino]-2-(morpholin-4-yl)-3,4-dihydro-pyrimidin-4-one], 1200 nM; to `CC1CCCN(c2nc(N[C@@H]3CCCNC3)c(-c3nc4ccccc4s3)c(=O)[nH]2)C1` (stereo partly drawn) [Example 290, 5-(benzo[d]thiazol-2-yl)-2-(3-methylpiperidin-1-yl)-6-((R)-piperidin-3-ylamino)pyrimidin-4(3H)-one], 140 nM. `O=c1[nH]c(N2CCc3cnccc3C2)nc(N[C@@H]2C[C@H](CO)[C@@H](O)[C@H]2O)c1-c1nc2ccccc2s1` [Example 74, 5-(benzo[d]thiazol-2-yl)-2-(3,4-dihydro-2,6-naphthyridin-2(1H)-yl)-6-((1R,2S,3R,4R)-2,3-dihydroxy-4-(hydroxymethyl)cyclopentylamino)pyrimidin-4(3H)-one]: under setting [2], the IC50 was 26.4 nM.

Consider `Cc1cc(N2CCN(c3nc(N[C@@H]4CCCNC4)c(-c4nc5ccccc5s4)c(=O)[nH]3)CC2)sn1` [Example 157, (R)-5-(benzo[d]thiazol-2-yl)-2-(4-(3-methylisothiazol-5-yl)piperazin-1-yl)-6-(piperidin-3-ylamino)pyrimidin-4(3H)-one], for which the IC50 (read-out: IRAK4 IC50) turned out to be 8 nM. Turning to `CC(C)N1CCC(c2nc(N[C@@H]3CCCNC3)c(-c3nc4ccccc4s3)c(=O)[nH]2)CC1` [Example 228, (R)-5-(1,3-benzothiazol-2-yl)-6-[[(3R)-piperidin-3-yl]amino]-2-[1-(propan-2-yl)piperidin-4-yl]-3,4-dihydro-pyrimidin-4-one], the IC50 (read-out: IC50) worked out at 660 nM. In the case of `COc1ccc(N2CCC3(CCN(c4nc(N[C@@H]5CCCNC5)c(-c5nc6ccccc6s5)c(=O)[nH]4)C3)C2)cc1` (stereo partly drawn) [Example 330, 5-(1,3-benzothiazol-2-yl)-2-[7-(4-methoxyphenyl)-2,7-diazaspiro[4.4]nonan-2-yl]-6-[[(3R)-piperidin-3-yl]amino]-3,4-dihydropyrimidin-4-one], the IC50 (read-out: IC50) was 21 nM. Consider `CS(=O)(=O)C1CN(c2nc(N[C@@H]3CCCNC3)c(-c3ccc4ccccc4n3)c(=O)[nH]2)C1` [Example 169, (R)-2-(3-(methylsulfonyl)azetidin-1-yl)-6-(piperidin-3-ylamino)-5-(quinolin-2-yl)pyrimidin-4(3H)-one], for which the concentration for half-maximal inhibition (IC50) (read-out: IRAK4 IC50) amounted to 32 nM. Turning to `O=c1[nH]c(C2CCN(C3CCCC3)CC2)nc(N[C@@H]2CCCNC2)c1-c1nc2ccccc2s1` [Example 231, 5-(1,3-benzothiazol-2-yl)-2-(1-cyclo-pentylpiperidin-4-yl)-6-[[(3R)-piperidin-3-yl]amino]-3,4-dihydropyrimidin-4-one], the IC50 (read-out: IC50) came to 620 nM.

As for `CN(Cc1ccccc1)c1nc(N[C@@H]2CCCNC2)c(-c2nc3ccccc3s2)c(=O)[nH]1` [Example 307, 5-(1,3-benzothiazol-2-yl)-2-[benzyl(methyl)amino]-6-[[(3R)-piperidin-3-yl]amino]-3,4-dihydropyrimidin-4-one dihydrocbloride], the IC50 (read-out: IC50) came out at 310 nM. Still for that read-out and setting: to `O=c1[nH]c(N2CCOCC2)nc(NCCN2CCCCC2)c1-c1ccc2ccccc2n1` [Example 278, 2-(morpholin-4-yl)-6-[[2-(piperidin-1-yl)ethyl]amino]-5-(quinolin-2-yl)-3,4-dihydropyrimidin-4-one] belongs 2800 nM. Regarding `O=c1[nH]c(NC2CCC2)nc(N[C@@H]2C[C@H](CO)[C@@H](O)[C@H]2O)c1-c1nc2ccccc2s1` [Example 1, 5-(Benzo[d]thiazol-2-yl)-2-(cyclobutylamino)-6-((1R,2S,3R,4R)-2,3-dihydroxy-4-(hydroxymethyl)cyclopentylamino)pyrimidin-4(3H)-one.HCl], the half-maximal inhibitory concentration (IC50) under setting [1] came out at 20 nM. The same measure, in the same setting: then `Cc1cccc(-c2c(N[C@@H]3CCCNC3)nc(N3CCOCC3)[nH]c2=O)n1` [Example 109, (R)-5-(6-methylpyridin-2-yl)-2-morpholino-6-(piperidin-3-ylamino)pyrimidin-4(3H)-one], with 1470 nM.

As for `O=c1[nH]c(N2CCOCC2)nc(N[C@@H]2CCCNC2)c1-c1csc(-c2ccccc2)n1` [Example 218, (R)-2-morpholino-5-(2-phenylthiazol-4-yl)-6-(piperidin-3-ylamino)pyrimidin-4(3H)-one], the 50% inhibitory concentration (IC50) (read-out: IC50) was found to be 7 nM. In the case of `O=c1[nH]c(N2CCOCC2)nc(N[C@@H]2CCCNC2)c1-c1nc2cc(Cl)ccc2s1` [Example 343, (R)-5-(5-chlorobenzo[d]thiazol-2-yl)-2-morpholino-6-(piperidin-3-ylamino)pyrimidin-4(3H)-one], under setting [1], the IC50 came to 8 nM. Same read-out and setting: then `CN(C)c1nc(N[C@@H]2C[C@H](CO)[C@@H](O)[C@H]2O)c(-c2nc3ccccc3s2)c(=O)[nH]1` [Example 30, 5-(Benzo[d]thiazol-2-yl)-6-(((1R,2S,3R,4R)-2,3-dihydroxy-4-(hydroxymethyl)cyclopentyl)amino)-2-(dimethylamino)pyrimidin-4(3H)-one.HCl], with 542 nM.

For `COc1ccccc1C1CCN(c2nc(N[C@@H]3CCCNC3)c(-c3ccc4ccccc4n3)c(=O)[nH]2)CC1` [Example 189, (R)-2-(4-(2-methoxyphenyl)piperidin-1-yl)-6-(piperidin-3-ylamino)-5-(quinolin-2-yl)pyrimidin-4(3H)-one], the half-inhibitory concentration (IC50) (read-out: IRAK4 IC50) was found to be 13 nM.

The values above are taken from patent US9221809B2 (MERCK SHARP & DOHME CORP., priority 2011, dated 2015).
